The values below come from patent US20250177586A1, “HEATING APPARATUS AND METHODS” (ACADEMISCH ZIEKENHUIS LEIDEN (H.O.D.N. LUMC), priority 2018, published 2025).

The test concerns S. Epidermidis biofilm. The test is described as follows: Eradication of biofilm from titanium alloy coupon by induction-heating thermal shock followed by antibiotics (FIG. 13). The format is cell-based. The settings on record: vancomycine 10 mg/L and rifampicine 1 mg together, 24 hours exposure in BHI culture medium, after thermal shock of 65° C. from 3.5 minutes with induction heating, N=6 or greater. An excerpt:
N=6 or greater for each group.

Turning to `CO[C@H]1/C=C/O[C@@]2(C)Oc3c(C)c(O)c4c(O)c(c(/C=N/N5CCN(C)CC5)c(O)c4c3C2=O)NC(=O)/C(C)=C\C=C\[C@H](C)[C@H](O)[C@@H](C)[C@@H](O)[C@@H](C)[C@H](OC(C)=O)[C@@H]1C` [rifampicine], the “eradication of biofilm (active count, Log (CFU/cm^2))” value is reported as “full eradication”.
As to `CN[C@H](CC(C)C)C(=O)N[C@H]1C(=O)N[C@@H](CC(N)=O)C(=O)N[C@H]2C(=O)N[C@H]3C(=O)N[C@H](C(=O)N[C@H](C(=O)O)c4cc(O)cc(O)c4-c4cc3ccc4O)[C@H](O)c3ccc(c(Cl)c3)Oc3cc2cc(c3O[C@@H]2O[C@H](CO)[C@@H](O)[C@H](O)[C@H]2O[C@H]2C[C@](C)(N)[C@H](O)[C@H](C)O2)Oc2ccc(cc2Cl)[C@H]1O` [vancomycine], the “eradication of biofilm (active count, Log (CFU/cm^2))” value is listed as “full eradication”.
